MIC data for 19 compounds are collected here from ChEMBL document CHEMBL3132797, “Synthesis and biological evaluation of substituted N-alkylphenyl-3,5-dinitrobenzamide analogs as anti-TB agents” (Medchemcomm, 2014).

As usually defined, the MIC is the lowest concentration that inhibits growth of the organism. High values mean a less susceptible organism, low ones a more susceptible organism.

Values after ≈ are worked out from the molar mass of the structure shown. Where only a bound is given, the exact number is not on record here.

Format in all cases: functional
In experiment [1] the test system is Mycobacterium tuberculosis. The experiment is described as follows: Antimycobacterial activity against isoniazid-resistant Mycobacterium tuberculosis clinical isolates by broth dilution method. Background: Dilution methods test growth across graded concentrations, often in twofold steps.
Experiment [2] concerns Mycobacterium tuberculosis. The experiment is described as follows: Antimycobacterial activity against multidrug-resistant Mycobacterium tuberculosis clinical isolates by broth dilution method.
The subject of experiment [3] is Mycobacterium tuberculosis. The experiment is described as follows: Antimycobacterial activity against rifampicin-resistant Mycobacterium tuberculosis clinical isolates by broth dilution method.

Regarding `C[C@@H](NC(=O)c1cc([N+](=O)[O-])cc([N+](=O)[O-])c1)c1ccccc1`, the MIC was 0.79 µM (≈ 0.249 µg/mL) in experiment [1], 12.7 µM (≈ 4 µg/mL) in experiment [2] and under 0.047 µM in experiment [3].

Take `O=C(NCCc1ccccc1)c1cc([N+](=O)[O-])cc([N+](=O)[O-])c1`: the MIC is 0.795 µM (≈ 0.251 µg/mL) in experiment [1], over 12.7 µM in experiment [2] and under 0.19 µM in experiment [3].

Turning to `O=C(Nc1ccc(F)cc1)c1cc([N+](=O)[O-])cc([N+](=O)[O-])c1`, in experiment [3], the minimum inhibitory concentration (MIC) amounted to 13 µM (≈ 3.98 µg/mL).

In turn, `O=C(Nc1ccccc1F)c1cc([N+](=O)[O-])cc([N+](=O)[O-])c1` yielded an MIC in experiment [3] of 13 µM (≈ 3.98 µg/mL).

`O=C(Nc1cc(Cl)cc(Cl)c1)c1cc([N+](=O)[O-])cc([N+](=O)[O-])c1` registered an MIC in experiment [3] of 45.1 µM (≈ 16.1 µg/mL).

Turning to `N#Cc1ccccc1NC(=O)c1cc([N+](=O)[O-])cc([N+](=O)[O-])c1`, the MIC in experiment [3] was found to be 3.2 µM (≈ 0.999 µg/mL).

On to `COc1ccc(CCNC(=O)c2cc([N+](=O)[O-])cc([N+](=O)[O-])c2)cc1`, for which, in experiment [3], the MIC is under 0.17 µM.

Turning to `CCCCC(CC)CNC(=O)c1cc([N+](=O)[O-])cc([N+](=O)[O-])c1` (stereo not drawn), the minimum inhibitory concentration (MIC) in experiment [3] is under 0.19 µM.

On to `O=C(NC1CCCC1)c1cc([N+](=O)[O-])cc([N+](=O)[O-])c1`, for which the minimal inhibitory concentration (MIC) in experiment [3] came out at 0.9 µM (≈ 0.251 µg/mL).

`Cc1c([N+](=O)[O-])cc(C(=O)NCc2ccccc2)cc1[N+](=O)[O-]` gave an MIC in experiment [3] of 3.17 µM (≈ 0.999 µg/mL).

`Cc1ccc([C@@H](C)NC(=O)c2cc([N+](=O)[O-])c(C)c([N+](=O)[O-])c2)cc1`: the minimum inhibitory concentration (MIC) in experiment [1] was 0.35 µM (≈ 0.12 µg/mL); in experiment [2], 0.35 µM (≈ 0.12 µg/mL); in experiment [3], under 0.04 µM.

As to `Cc1c([N+](=O)[O-])cc(C(=O)N[C@H](C)c2ccc(F)cc2)cc1[N+](=O)[O-]`, the results for the MIC in experiment [1], in experiment [2] and in experiment [3] were 11.5 µM (≈ 4 µg/mL), 5.76 µM (≈ 2 µg/mL) and 11.5 µM (≈ 4 µg/mL), respectively.

`Cc1c([N+](=O)[O-])cc(C(=O)N[C@@H](C)c2ccc(F)cc2)cc1[N+](=O)[O-]`: the MIC was 0.72 µM (≈ 0.25 µg/mL) in experiment [1], 0.72 µM (≈ 0.25 µg/mL) in experiment [2] and under 0.04 µM in experiment [3].

For `Cc1ccc([C@@H](C)NC(=O)c2cc([N+](=O)[O-])cc([N+](=O)[O-])c2)cc1`, the results for the MIC in experiment [1], in experiment [2] and in experiment [3] were under 0.05 µM, 12.2 µM (≈ 4 µg/mL) and under 0.05 µM, respectively.

With `CC(C)c1ccc(NC(=O)c2cc([N+](=O)[O-])cc([N+](=O)[O-])c2)cc1`, the MIC in experiment [3] turned out to be 48.6 µM (≈ 16 µg/mL).

`Cc1ccc(C(C)NC(=O)c2cc([N+](=O)[O-])c(C)c([N+](=O)[O-])c2)cc1` (racemic) had an MIC in experiment [3] of under 0.17 µM.

Take `CC[C@@H](CO)NCCN[C@@H](CC)CO` [ETHAMBUTOL]: in experiment [2], the MIC was determined as 16 µM (≈ 3.27 µg/mL).

`NNC(=O)c1ccncc1` [ISONIAZID]: the minimal inhibitory concentration (MIC) in experiment [1] stood at 64 µM (≈ 8.78 µg/mL); in experiment [2], 16 µM (≈ 2.19 µg/mL).

Take `CO[C@H]1/C=C/O[C@@]2(C)Oc3c(C)c(O)c4c(O)c(c(/C=N/N5CCN(C)CC5)c(O)c4c3C2=O)NC(=O)/C(C)=C\C=C\[C@H](C)[C@H](O)[C@@H](C)[C@@H](O)[C@@H](C)[C@H](OC(C)=O)[C@@H]1C` [RIFAMPIN]: the minimum inhibitory concentration (MIC) in experiment [2] was 64 µM (≈ 52.7 µg/mL); in experiment [3] it was 256 µM (≈ 211 µg/mL).
